Reference: patent publication US20060009524A1, “Methods for producing D-beta-hydroxyamino acids” (priority 2004, published 2006)

Test system: L-phenylserine aldolase
Assay: Effect of cations on the activity of L-phenylserine aldolase
Type: biochemical, Pseudomonas putida biovar A24-1 strain
Settings: not given

Row | Molecule | Relative activity [%]
1 | O=S(=O)([O-])[O-].[Cu+2] [Copper sulfate] | 89
2 | O=S(=O)([O-])[O-].[Fe+2] [Ferric (II) sulfate] | 91
3 | [Cl-].[Cl-].[Mg+2] [Magnesium chloride] | 98

Same assay, conditions: compound 0.1 mM, preincubated with enzyme at 30° C. for 10 minutes; […]

Row | Molecule | Relative activity [%]
4 | [Cl][Co][Cl] [Cobalt chloride] | 98
5 | [Cl-].[Cl-].[Zn+2] [Zinc chloride] | 92

Same assay, conditions: compound 0.1 mM, preincubated with enzyme at 30° C. for 10 minutes; activity in the absence of cation taken as 100

Row | Molecule | Relative activity [%]
6 | [Ba+2].[Cl-].[Cl-] [Barium chloride] | 90
7 | Manganese chloride | 92

Same assay, conditions: compound 50 mM, preincubated with enzyme at 30° C. for 10 minutes; […]

Row | Molecule | Relative activity [%]
8 | Cl.N [Ammonium chloride] | 92
9 | [Cl-].[K+] [Potassium chloride] | 94
10 | [Cl-].[Na+] [Sodium chloride] | 88

Same assay, conditions: monovalent or divalent cations

Row | Molecule | activation of the enzyme by cation (in words)
11 | N [ammonium ion] | not activated
12 | [Mn+2] [manganese ion] | not activated
13 | [K+] [potassium ion] | not activated

Test system: L-phenylserine aldolase
Assay: Substrate specificity of purified L-phenylserine aldolase under the standard assay conditions
Settings: compound as substrate

Row | Molecule | enzymatic activity to the compound (in words)
14 | C[C@H](O)[C@H](N)C(=O)O [L-allo-threonine] | low enzymatic activity
15 | N[C@@H](CO)C(=O)O [L-serine] | almost no activity
16 | C[C@@H](O)[C@H](N)C(=O)O [L-threonine] | low enzymatic activity

Same assay, conditions: compound as substrate; […]

Row | Molecule | activity to the compound
17 | N[C@@H](C(=O)O)[C@H](O)c1ccccc1 [D-erythro-phenyl serine] | undetectable
18 | N[C@@H](C(=O)O)[C@@H](O)c1ccccc1 [D-threo-phenyl serine] | undetectable

Same assay, conditions: compound as substrate; activity to DL-threo-β-phenyl serine taken as 100; purified enzyme, standard assay conditions

Row | Molecule | Relative activity
19 | N[C@@H](C(=O)O)[C@H](O)c1ccccc1 (racemic) [DL-erythro-β-phenyl serine] | 130
20 | N[C@@H](C(=O)O)[C@@H](O)c1ccccc1 (racemic) [DL-threo-β-phenyl serine] | 100
21 | CCC(O)C(N)C(=O)O (racemic) [DL-β-hydroxynorvaline] | 0
22 | NCC(O)c1ccccc1 (racemic) [DL-β-hydroxyphenylethylamine] | 0
23 | C[C@@H](O)[C@@H](N)C(=O)O [D-allo-threonine] | 0
24 | N[C@H](CO)C(=O)O [D-serine] | 0
25 | C[C@H](O)[C@@H](N)C(=O)O [D-threonine] | 0
26 | C[C@H](O)[C@H](N)C(=O)O [L-allo-threonine] | 8
27 | O=C(O)[C@@H](O)Cc1ccccc1 [L-phenyllactic acid] | 0
28 | N[C@@H](CO)C(=O)O [L-serine] | 0
29 | C[C@@H](O)[C@H](N)C(=O)O [L-threonine] | 2.1
30 | DL-β-thienyl serine | 170

Test system: L-phenylserine aldolase
Assay: not given
Type: biochemical, Pseudomonas putida biovar A24-1 strain
Settings: compound as substrate; activity to DL-threo-phenyl serine taken as 100%
Experimental: E. coli JM109 strain was transformed with the plasmid pKK-PSA1 obtained in Example 4. The resulting transformant was inoculated to liquid LB medium (Bacto-tryptone 10 g/l, Bacto-yeast extract 5 g/l, sodium chloride 10 g/l; pH 7.2) containing ampicillin (50 mg/l), and cultured at 30° C. overnight. Then, an aliquot of the culture was inoculated to 2×YT medium (Bacto-tryptone 20 g/l, Bacto-yeast extract 10 g/l, sodium chloride 10 g/l; pH 7.2) containing ampicillin (50 mg/l). The bacterial cells were cultured at 30° C., and then the induction was achieved by treating the cells with 0.1 mM IPTG for 4 hours. The bacterial cells were harvested by centrifugation. The cells were suspended in 100 mM TES-NaOH buffer (pH 7.2) containing 0.02% 2-mercaptoethanol, 2 mM EDTA, and 20 μM pyridoxal-5′-phosphate. The cell suspension was sonicated in a closed sonicator UCD-200™ (Cosmo Bio) for 3 minutes to lyse the bacterial cells. The bacterial cell lysate was centrifuged and the resulting supernatant was used as cell-free extract. The activity of L-phenylserine aldolase was assayed using the cell-free extract. The specific activity was confirmed to be 20.0 U/mg.
When the activity to DL-threo-phenyl serine was taken as 100%, the relative activity was estimated to be 31.3%.

Row | Molecule | Relative activity [%]
31 | N[C@@H](C(=O)O)[C@H](O)C1CCCCC1 (racemic) | 31.3

Same assay, conditions: compound as substrate; cell-free extract of Example 5

Row | Molecule | enzymatic activity to the substrate [U/mg]
32 | N[C@@H](C(=O)O)[C@H](O)C1CCCCC1 (racemic) | 6.26
